{"source": "patent EP0538248B1", "about": "“TETRAHYDROISOQUINOLINYLCARBAMATES OF 1,2,3,3A,8,8A-HEXAHYDRO-1,3A,8-TRIMETHYLPYRROLO [2,3-B]INDOLE” (priority 1990, dated 1992)", "key": {"[1]": {"experiment": "Stability on incubation with human plasma at 37°C", "type": "in vitro ADME", "details": "after 4 hours"}, "[2]": {"system": "anesthetized dogs", "experiment": "Cardiovascular effects in anesthetized dogs during combined blockade of alpha and beta adrenergic receptors", "procedure": "(§1) Beagles of either sex are anesthetized with sodium thiopental 15 mg/kg + sodium barbital 200 mg/kg + 60 mg of sodium pentobarbital i.v. The trachea is intubated with a cuffed endotracheal tube and connected to a Harvard Respirator Pump set at 20 ml/stroke and 10 strokes/minute. The right femoral artery and vein are exposed and cannulated with polyethylene tubing for measurement of arterial blood pressure and i.v. administration of drugs, respectively. The duration of these experiments is two hours postdrug when drug is administered i.v. and three hours when administered i.d.\nThe arterial cannula is connected to a Statham P23Gb transducer. Left ventricular cardiac catheterization is accomplished by introducing a Millar microtip pressure transducer into the left carotid artery and advancing it to the left ventricle. The cannula is connected to a Millar TC-100 transducer control unit which is connected to a Beckman voltage/pressure pulse coupler. Ventricular pressure and its first derivative dP/dt are measured simultaneously by wiring the signal output from the left ventricular pressure tracing into a differentiator. […] The proximal lumen of this catheter is in the right atrium when the distal lumen and thermistor have been properly placed in the pulmonary artery. […] Cardiac output is determined by injecting 5 ml of iced 5% dextrose in water into the proximal site (right atrium) and then measuring the temperature change in the pulmonary artery. Using the Stewart-Hamilton equation, the cardiac output can be determined by integrating the area under the thermodilution curve with an Edwards Cardiac Output Computer (model 9520). Heart rate is determined with a Beckman Cardiotach which sums the pressure waves from the pulse pressure curve of the arterial pressure. Lead II EKG is recorded. […] The measurement of these parameters provides information so that the following may be either measured directly or calculated: • 1. […] Central Venous Pressure - CVP measured as right atrial pressure (RAP) mmHg or cmH2O. • 9. […]"}, "[3]": {"experiment": "Oral bioavailability studies (absorption, brain:plasma partition)"}, "[4]": {"system": "anesthetized dog", "experiment": "Acute cardiovascular hemodynamic evaluation in the anesthetized dog", "details": "for CO: cardiac output; for HR: heart rate; for LVEDP: left ventricular end-diastolic pressure; for MAP: mean arterial blood pressure; for RAP: right atrial pressure", "procedure": "(Details of test methods used for determining acute cardiovascular hemodynamic effects are presented following the Conclusion section).\nas §1\nThe arterial cannula is connected to a Statham P23Gb transducer. Left ventricular cardiac catheterization is accomplished by introducing a Millar microtip pressure transducer into the left carotid artery and advancing it to the left ventricle. The cannula is connected to a Millar TC-100 transducer control unit which is connected to a Beckman voltage/pressure pulse coupler. Ventricular pressure and its first derivative dP/dt are measured simultaneously by wiring the signal output from the left ventricular pressure tracing into a differentiator. […] The proximal lumen of this catheter is in the right atrium when the distal lumen and thermistor have been properly placed in the pulmonary artery. The signal outputs from the proximal and distal sites are connected to Statham P23BB transducers to measure right atrial pressure (RAP) and pulmonary artery pressure (PAP). Cardiac output is determined by injecting 5 ml of iced 5% dextrose in water into the proximal site (right atrium) and then measuring the temperature change in the pulmonary artery. Using the Stewart-Hamilton equation, the cardiac output can be determined by integrating the area under the thermodilution curve with an Edwards Cardiac Output Computer (model 9520). Heart rate is determined with a Beckman Cardiotach which sums the pressure waves from the pulse pressure curve of the arterial pressure. Lead II EKG is recorded. […] The measurement of these parameters provides information so that the following may be either measured directly or calculated: • 1. Mean Arterial Blood Pressure - MAP (mmHg) • 2. Heart Rate - HR • 3. Cardiac Output - CO (1/minute) • 4. Total Peripheral Resistance - TPR • 5. Cardiac Index - CI (CO/m^2) • 6. Stroke Volume - SV (ml/beat) • 7. Stroke Work - SW (gm-m/beat) • 8. Central Venous Pressure - CVP measured as right atrial pressure (RAP) mmHg or cmH2O. • 9. Left Ventricular End Diastolic Pressure - LVEDP (mmHg) • 10. Rate of Rise of Ventricular Pressure - dP/dt/Pmax This parameter is a better estimate of the contractile state of the myocardium that dP/ dt alone since the former is relatively independent of the loading conditions of the heart (sec^-1). • 11. Plumonary Artery Pressure - PAP (mmHg) • 12. Electrocardiogram - EKG"}, "[5]": {"molecular_target": "butyrylcholinesterase (Homo sapiens, UniProt P06276)", "sequence (P06276 29-602)": "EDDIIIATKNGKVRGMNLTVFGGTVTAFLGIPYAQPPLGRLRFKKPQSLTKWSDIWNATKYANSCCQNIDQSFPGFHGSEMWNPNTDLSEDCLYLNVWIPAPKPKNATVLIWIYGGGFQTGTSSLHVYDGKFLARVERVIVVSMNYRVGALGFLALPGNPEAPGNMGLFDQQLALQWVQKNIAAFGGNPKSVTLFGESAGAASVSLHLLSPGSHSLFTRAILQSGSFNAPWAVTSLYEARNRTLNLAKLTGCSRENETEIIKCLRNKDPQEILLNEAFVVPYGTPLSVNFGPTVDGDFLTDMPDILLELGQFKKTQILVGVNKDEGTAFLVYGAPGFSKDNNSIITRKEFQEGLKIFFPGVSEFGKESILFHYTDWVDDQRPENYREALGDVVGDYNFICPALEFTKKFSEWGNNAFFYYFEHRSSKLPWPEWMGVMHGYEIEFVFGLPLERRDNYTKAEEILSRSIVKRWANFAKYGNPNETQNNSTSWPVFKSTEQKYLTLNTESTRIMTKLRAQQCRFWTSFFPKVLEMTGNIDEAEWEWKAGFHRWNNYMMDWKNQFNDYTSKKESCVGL", "details": "relative to physostigmine"}, "[6]": {"molecular_target": "T1, rat brain AChE (Rattus norvegicus, UniProt P37136)", "T1 sequence (P37136 32-614)": "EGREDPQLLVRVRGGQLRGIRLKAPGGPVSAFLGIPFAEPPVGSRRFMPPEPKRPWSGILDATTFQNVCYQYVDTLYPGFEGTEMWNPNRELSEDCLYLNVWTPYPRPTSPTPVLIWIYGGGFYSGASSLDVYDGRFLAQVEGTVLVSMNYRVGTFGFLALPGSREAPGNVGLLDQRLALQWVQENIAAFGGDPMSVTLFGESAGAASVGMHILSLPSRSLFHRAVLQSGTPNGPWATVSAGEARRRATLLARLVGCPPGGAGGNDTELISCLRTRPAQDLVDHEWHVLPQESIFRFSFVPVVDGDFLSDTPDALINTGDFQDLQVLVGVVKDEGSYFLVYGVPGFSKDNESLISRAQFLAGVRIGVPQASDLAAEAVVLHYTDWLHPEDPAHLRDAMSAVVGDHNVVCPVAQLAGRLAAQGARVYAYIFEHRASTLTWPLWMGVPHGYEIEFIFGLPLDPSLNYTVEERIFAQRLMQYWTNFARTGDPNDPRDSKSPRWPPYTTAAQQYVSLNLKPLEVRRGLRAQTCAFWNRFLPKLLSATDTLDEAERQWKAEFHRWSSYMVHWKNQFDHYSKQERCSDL", "procedure": "The method described below was used in this invention for assaying cholinesterase activity. This is a modification of the method of Ellman et al., Biochem. Pharmacol. 7, 98 (1961).\n• A. Reagents - • 1. 0.05 M Phosphate buffer, pH 7.2 • (a) 6.85 g NaH2PO4•H2O/100 ml distilled H2O • (b) 13.40 g Na2HPO4•7H2O/100 ml distilled H2O • (c) add (a) to (b) until pH reaches 7.2 • (d) Dilute 1:10 • 2. Substrate in buffer • (a) 198 mg acetylthiocholine chloride (10 mM) • (b) q.s to 100 ml with 0.05 M phosphate buffer, pH 7.2 (reagent 1) • 3. DTNB in buffer • (a) 19.8 mg 5,5-dithiobisnitrobenzoic acid (DTNB) (0.5 mM) • (b) q.s. to 100 ml with 0.05 M phosphate buffer, pH 7.2 (reagent 1) • 4. A 2 mM stock solution of the test drug is made up in a suitable solvent and q.s. to volume with 0.5 mM DTNB (reagent 3). Drugs are serially diluted (1:10) such that the final concentration (in cuvette) is 10^-4 M and screened for activity. If active, IC50 values are determined from the inhibitory activity of subsequent concentrations. • B. Tissue Preparation- Male Wistar rats are decapitated, brains rapidly removed, copora striata disected free, weighed and homogenized in 19 volumes (approximately 7 mg protein/ml) of 0.05 M phosphate buffer, pH 7.2 using a Potter-Elvehjem homogenizer. A 25 microliter aliquot of the homogenate is added to 1.0 milliter vehicle or various concentrations of the test drug and preincubated for 10 minutes at 37°C. • C. Assay- Enzyme activity is measured with the Beckman DU-50 spectrophotometer. This method can be used for IC50 determinations and for measuring kinetic constants. Instruments Settings • Kinetics Soft-Pac Module #598273 (10) • Program #6 Kindata: • Source - Vis • Wavelength - 412 nm • Sipper - none • Cuvettes - 2 ml cuvettes using auto 6-sampler • Blank - 1 for each substrate concentration • Interval time - 15 seconds (15 or 30 seconds for kinetics) • Total time - 5 minutes (5 or 10 minutes for kinetics) • Plot - yes • Span - autoscale • Slope - increasing • Results - yes (gives slope) • Factor - 1\nReagents are added to the blank and sample cuvettes as follows: Blank: 0.8 ml Phosphate Buffer/DTNB 0.8 ml Buffer/Substrate Control: 0.8 ml Phosphate Buffer/DTNB/Enzyme 0.8 ml Phosphate Buffer/Substrate Drug: 0.8 ml Phosphate Buffer/DTNB/Drug/ Enzyme 0.8 ml Phosphate Buffer/Substrate Blank values are determined for each run to control for non-enzymatic hydrolysis of substrate and these values are automatically subtracted by the kindata program available on kinetics soft-pac module. This program also calculates the rate of absorbance change for each cuvette.\nSubstrate concentration is 10 mM diluted 1:2 in assay yielding final concentration of 5 mM."}, "[7]": {"system": "[^3H]norepinephrine release", "experiment": "[3H]norepinephrine release in vitro", "type": "biochemical, Rat", "details": "Compound A at 100 µM"}, "[8]": {"details": "0.01 mg/kg/min i.v. during alpha and beta receptor blockade"}, "[9]": {"details": "0.01 mg/kg/min. i.v., anesthetized dog"}, "[10]": {"details": "0.1 mg/kg/min. i.v., anesthetized dog"}}, "note": "Like-named read-outs stand apart in the source and are kept apart here.", "data": [{"compound": "CNC(=O)Oc1ccc2c(c1)[C@]1(C)CCN(C)[C@@H]1N2C", "note": "[physostigmine]", "values": [{"measurement": "compound remaining after incubation with human plasma", "setting": "[1]", "result": "completely destroyed"}, {"measurement": "mortality (dogs)", "setting": "[2]; [8]", "result": "3 out of 3"}, {"measurement": "time to mortality", "setting": "[2]; [8]", "result": "17 to 29", "unit": "min"}, {"measurement": "oral absorption / bioavailability", "setting": "[3]", "result": "so poorly bioavailable by the oral route that pharmacokinetic data was not available"}, {"measurement": "mortality", "setting": "[4]; 0.01 mg/kg/min i.v., intact alpha and beta adrenergic receptors", "result": "no mortality"}, {"measurement": "TRP", "setting": "[4]; [9]", "result": -34, "unit": "%"}, {"measurement": "dP/dT", "setting": "[4]; [9]", "result": -32, "unit": "%"}, {"measurement": "ECG", "setting": "[4]; [10]", "result": "A-V block inc. T wave"}, {"measurement": "TRP", "setting": "[4]; [10]", "result": -48, "unit": "%"}, {"measurement": "dP/dT", "setting": "[4]; [10]", "result": -80, "unit": "%"}, {"measurement": "CO", "setting": "[4]; [9]", "result": -23, "unit": "%"}, {"measurement": "CO", "setting": "[4]; [10]", "result": -79, "unit": "%"}, {"measurement": "HR", "setting": "[4]; [9]", "result": -49, "unit": "%"}, {"measurement": "HR", "setting": "[4]; [10]", "result": -82, "unit": "%"}, {"measurement": "LVEDP", "setting": "[4]; [9]", "result": "+5mmHG"}, {"measurement": "LVEDP", "setting": "[4]; [10]", "result": "+8mmHG"}, {"measurement": "MAP", "setting": "[4]; [9]", "result": -49, "unit": "%"}, {"measurement": "MAP", "setting": "[4]; [10]", "result": -78, "unit": "%"}, {"measurement": "RAP", "setting": "[4]; [9]", "result": "+5mmHG"}, {"measurement": "RAP", "setting": "[4]; [10]", "result": "+8mmHG"}]}, {"compound": "(3aS-cis)-1,2,3,3a,8,8a-hexahydro-1,3a,8-trimethylpyrrolo[2,3-b]indol-5-ol,(1,2,3,4-tetrahydroisoquinolinyl)carbamate [Compound A]", "values": [{"measurement": "compound remaining after incubation with human plasma", "setting": "[1]", "result": "approximately 70%"}, {"measurement": "potency as an inhibitor of butyrylcholinesterase, times less potent than physostigmine", "setting": "[5]", "result": "approximately 34 times"}, {"measurement": "cardiac and hemodynamic effects", "setting": "[2]; 0.1 mg/kg/min i.v. during alpha and beta adrenergic blockade", "result": "moderate decreases in blood pressure and cardiac output"}, {"measurement": "accumulation effect on repeated administration", "setting": "[6]; 20 mg/kg for four days in rats", "result": "no accumulation effect"}, {"measurement": "inhibition of rat brain AChE ex vivo", "setting": "[6]; 20 mg/kg, 4 hours after oral administration", "result": "significantly inhibitied"}, {"measurement": "inhibition of rat brain AChE ex vivo", "setting": "[6]; 20 mg/kg, 6 hours after oral administration", "result": "significantly inhibitied"}, {"measurement": "inhibition of rat brain AChE ex vivo", "setting": "[6]; 20 mg/kg, 24 hours after oral administration", "result": "not statistically significant"}, {"measurement": "inhibition of rat brain AChE ex vivo", "setting": "[6]; after oral administration", "result": "significant inhibition"}, {"measurement": "[^3H]norepinephrine release in vitro", "setting": "[7]", "result": "stimulated"}, {"measurement": "oral absorption / bioavailability", "setting": "[3]", "result": "rapidly absorbed orally"}, {"measurement": "TRP", "setting": "[4]; [9]", "result": -18, "unit": "%"}, {"measurement": "dP/dT", "setting": "[4]; [9]", "result": "+37%"}, {"measurement": "TRP", "setting": "[4]; [10]", "result": "+61%"}, {"measurement": "dP/dT", "setting": "[4]; [10]", "result": "+38%"}, {"measurement": "CO", "setting": "[4]; [10]", "result": "+40%"}, {"measurement": "HR", "setting": "[4]; [9]", "result": -12, "unit": "%"}, {"measurement": "HR", "setting": "[4]; [10]", "result": -13, "unit": "%"}, {"measurement": "MAP", "setting": "[4]; [9]", "result": -12, "unit": "%"}, {"measurement": "MAP", "setting": "[4]; [10]", "result": "+54%"}]}]}
